# Literature values as cited in patent publication US20020035037A1, “CONTROL OF SCLEROTIUM CEPIVORUM IN ALLIUM PLANTS” (priority 1991, published 2002).
# Test system: Sclerotium cepivorum
# Settings: iprodione 125 g/kg seed as seed treatment; procymidon 4-6 kg/ha as soil treatment; particularly with heavy infestation
row,Structure (SMILES),effectiveness of control of Sclerotium cepivorum
1,CC12CC1(C)C(=O)N(c1cc(Cl)cc(Cl)c1)C2=O (centres unmarked) [procymidon],not effective
2,CC(C)NC(=O)N1CC(=O)N(c2cc(Cl)cc(Cl)c2)C1=O [iprodione],not effective
